From patent US20250326753A1, “DUAL CXCR4-BTK INHIBITORS” (X4 Pharmaceuticals, Inc., priority 2022, published 2025)

Tests used:
Type in all cases: biochemical
FGR = target: T1, FGR (Homo sapiens, UniProt P09769); test: PanQinase kinase panel: FGR; settings: read-out: INHIBITORY EFFECT @ 1 uM: FGR
T1 construct: purchased Reaction Biology Europe GmbH
Procedure: (§1) Screening procedures were performed in accordance with the company's on-line protocol [accessed on-line Mar.
(§2) For each kinase, the median value of the cpm of three wells was defined as “low control” (n=3). This value reflects unspecific binding of radioactivity to the plate in the absence of a protein kinase but in the presence of the substrate. Additionally, for each kinase the median value of the cpm of three other wells was taken as the “high control,” i.e. full activity in the absence of any inhibitor (n=3). The difference between high and low control of each enzyme was taken as 100% activity.
As part of the data evaluation the low control of each kinase was subtracted from the high control value as well as from their corresponding “compound values”.

EPHB2 = target: T2, EPHB2 (Homo sapiens, UniProt P29323); test: PanQinase kinase panel: EPHB2; settings: read-out: INHIBITORY EFFECT @ 1 uM: EPHB2
T2 construct: purchased Reaction Biology Europe GmbH
T2 sequence (P29323 19-1055): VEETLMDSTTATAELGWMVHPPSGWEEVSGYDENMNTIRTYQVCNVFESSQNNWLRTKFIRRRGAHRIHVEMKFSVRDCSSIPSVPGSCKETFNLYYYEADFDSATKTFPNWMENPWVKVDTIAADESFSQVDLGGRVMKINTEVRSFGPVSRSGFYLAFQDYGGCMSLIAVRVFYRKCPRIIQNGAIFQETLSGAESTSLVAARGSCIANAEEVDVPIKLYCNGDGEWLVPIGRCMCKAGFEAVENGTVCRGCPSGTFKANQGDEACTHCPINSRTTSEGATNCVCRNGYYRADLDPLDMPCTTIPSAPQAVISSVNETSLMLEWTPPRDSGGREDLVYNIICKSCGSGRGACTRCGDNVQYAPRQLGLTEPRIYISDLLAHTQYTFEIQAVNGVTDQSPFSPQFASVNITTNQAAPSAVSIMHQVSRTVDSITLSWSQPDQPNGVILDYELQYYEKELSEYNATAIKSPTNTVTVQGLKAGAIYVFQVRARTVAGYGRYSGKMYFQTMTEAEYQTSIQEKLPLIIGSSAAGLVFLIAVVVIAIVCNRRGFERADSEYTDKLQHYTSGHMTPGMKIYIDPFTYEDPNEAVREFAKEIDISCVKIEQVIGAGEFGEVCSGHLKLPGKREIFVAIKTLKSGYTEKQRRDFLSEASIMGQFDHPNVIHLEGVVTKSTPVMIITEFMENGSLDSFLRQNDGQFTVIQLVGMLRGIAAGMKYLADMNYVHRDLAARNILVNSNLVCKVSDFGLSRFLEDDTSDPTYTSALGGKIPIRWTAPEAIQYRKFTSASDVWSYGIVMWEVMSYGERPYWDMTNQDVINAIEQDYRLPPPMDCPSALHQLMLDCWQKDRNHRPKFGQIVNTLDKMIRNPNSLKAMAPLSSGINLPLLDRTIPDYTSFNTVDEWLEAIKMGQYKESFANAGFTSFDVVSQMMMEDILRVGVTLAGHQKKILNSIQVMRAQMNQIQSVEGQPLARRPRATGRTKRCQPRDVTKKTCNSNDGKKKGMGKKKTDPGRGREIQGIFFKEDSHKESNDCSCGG
Procedure: as §1, §2
(§3) As part of the data evaluation the low control of each kinase was subtracted from the high control value as well as from their corresponding “compound values”. The residual activity (in %) for each compound well was calculated by using the following formula: Res. Activity (%)=100×[(signal of compound−low control)/(high control−low control)].

PKN3 = target: T3, PKN3 (Homo sapiens, UniProt Q6P5Z2); test: PanQinase kinase panel: PKN3; settings: read-out: INHIBITORY EFFECT @ 1 uM: PKN3
T3 construct: purchased Reaction Biology Europe GmbH
T3 sequence (Q6P5Z2 whole entry): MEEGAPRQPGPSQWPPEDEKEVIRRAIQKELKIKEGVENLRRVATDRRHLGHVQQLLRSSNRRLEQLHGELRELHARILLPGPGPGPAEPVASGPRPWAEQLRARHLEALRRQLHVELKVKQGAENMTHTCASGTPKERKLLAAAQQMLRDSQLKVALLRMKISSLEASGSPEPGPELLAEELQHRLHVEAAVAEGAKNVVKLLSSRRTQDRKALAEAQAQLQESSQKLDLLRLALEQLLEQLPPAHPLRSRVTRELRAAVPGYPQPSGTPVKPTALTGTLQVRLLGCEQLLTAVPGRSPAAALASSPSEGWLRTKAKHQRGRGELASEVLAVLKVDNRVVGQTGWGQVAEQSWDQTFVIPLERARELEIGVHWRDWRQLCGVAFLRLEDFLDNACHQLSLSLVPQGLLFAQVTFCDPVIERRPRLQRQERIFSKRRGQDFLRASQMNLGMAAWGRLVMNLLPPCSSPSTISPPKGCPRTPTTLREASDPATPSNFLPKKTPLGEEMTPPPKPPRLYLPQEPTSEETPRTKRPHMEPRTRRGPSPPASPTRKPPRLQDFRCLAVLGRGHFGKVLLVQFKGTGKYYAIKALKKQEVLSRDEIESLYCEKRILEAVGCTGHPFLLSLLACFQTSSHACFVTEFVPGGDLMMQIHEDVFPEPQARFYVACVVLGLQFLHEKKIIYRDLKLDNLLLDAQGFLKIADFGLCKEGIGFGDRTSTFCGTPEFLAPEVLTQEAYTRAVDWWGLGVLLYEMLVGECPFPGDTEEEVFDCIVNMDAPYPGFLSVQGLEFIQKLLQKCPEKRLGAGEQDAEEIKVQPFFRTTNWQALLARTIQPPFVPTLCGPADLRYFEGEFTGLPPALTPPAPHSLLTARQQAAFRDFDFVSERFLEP
Procedure: as §1, §2, §3

KIT = target: T4, KIT (Homo sapiens, UniProt P10721); test: PanQinase kinase panel: KIT; settings: read-out: INHIBITORY EFFECT @ 1 uM: KIT
T4 construct: purchased Reaction Biology Europe GmbH
T4 sequence (P10721 26-976): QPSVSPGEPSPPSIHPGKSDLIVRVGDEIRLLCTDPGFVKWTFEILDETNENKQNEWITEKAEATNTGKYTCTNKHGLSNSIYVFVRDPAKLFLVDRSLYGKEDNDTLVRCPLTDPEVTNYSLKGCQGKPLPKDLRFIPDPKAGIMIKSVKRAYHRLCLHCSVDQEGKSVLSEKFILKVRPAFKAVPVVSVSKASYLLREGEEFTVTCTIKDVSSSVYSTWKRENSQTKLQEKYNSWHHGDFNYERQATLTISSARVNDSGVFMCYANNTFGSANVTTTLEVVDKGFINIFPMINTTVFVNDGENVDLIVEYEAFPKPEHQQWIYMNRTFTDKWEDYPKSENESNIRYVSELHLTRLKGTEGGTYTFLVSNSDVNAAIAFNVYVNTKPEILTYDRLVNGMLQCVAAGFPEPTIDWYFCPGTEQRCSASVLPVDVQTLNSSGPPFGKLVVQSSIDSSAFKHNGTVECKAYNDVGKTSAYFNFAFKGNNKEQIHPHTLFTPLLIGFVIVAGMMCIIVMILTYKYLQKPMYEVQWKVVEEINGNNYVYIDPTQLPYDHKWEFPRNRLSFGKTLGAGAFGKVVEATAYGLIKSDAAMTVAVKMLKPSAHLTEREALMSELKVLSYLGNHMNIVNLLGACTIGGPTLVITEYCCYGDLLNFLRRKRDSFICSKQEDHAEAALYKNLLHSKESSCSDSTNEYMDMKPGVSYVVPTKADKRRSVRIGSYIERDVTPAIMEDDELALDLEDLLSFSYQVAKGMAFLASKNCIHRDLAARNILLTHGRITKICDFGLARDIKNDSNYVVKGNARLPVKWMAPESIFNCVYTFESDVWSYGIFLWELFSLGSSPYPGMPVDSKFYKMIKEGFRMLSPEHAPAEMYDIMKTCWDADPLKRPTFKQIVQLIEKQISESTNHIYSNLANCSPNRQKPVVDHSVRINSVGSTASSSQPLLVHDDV
Procedure: as §1, §2, §3

FGFR2 = target: T5, FGFR2 (Homo sapiens, UniProt P21802); test: PanQinase kinase panel: FGFR2; settings: read-out: INHIBITORY EFFECT @ 1 uM: FGFR2
T5 construct: purchased Reaction Biology Europe GmbH
T5 sequence (P21802 22-821): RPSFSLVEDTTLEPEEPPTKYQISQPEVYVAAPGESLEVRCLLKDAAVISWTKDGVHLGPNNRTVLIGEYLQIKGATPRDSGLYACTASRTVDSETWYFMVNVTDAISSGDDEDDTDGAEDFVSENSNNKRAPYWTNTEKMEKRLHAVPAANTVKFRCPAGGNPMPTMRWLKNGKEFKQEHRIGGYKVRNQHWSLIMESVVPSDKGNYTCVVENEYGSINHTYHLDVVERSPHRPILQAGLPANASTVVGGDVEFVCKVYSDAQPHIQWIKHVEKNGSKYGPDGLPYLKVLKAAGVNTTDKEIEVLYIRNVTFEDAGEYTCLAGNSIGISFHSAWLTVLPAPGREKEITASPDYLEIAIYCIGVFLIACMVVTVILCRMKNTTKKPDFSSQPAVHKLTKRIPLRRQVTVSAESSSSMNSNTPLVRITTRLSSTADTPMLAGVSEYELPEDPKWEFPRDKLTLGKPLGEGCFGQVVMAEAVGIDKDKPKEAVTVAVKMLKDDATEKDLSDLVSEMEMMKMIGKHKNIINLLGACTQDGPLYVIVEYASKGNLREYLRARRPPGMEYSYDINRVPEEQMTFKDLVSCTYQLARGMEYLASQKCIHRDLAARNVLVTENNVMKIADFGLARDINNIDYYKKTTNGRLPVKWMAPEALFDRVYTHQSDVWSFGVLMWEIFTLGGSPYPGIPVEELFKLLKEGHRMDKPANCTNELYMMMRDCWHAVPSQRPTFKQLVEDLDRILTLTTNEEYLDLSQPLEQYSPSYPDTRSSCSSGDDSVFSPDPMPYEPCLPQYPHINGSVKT
Procedure: Screening procedures were performed in accordance with the company's on-line protocol [accessed on-line Mar. 25, 2022 at reaction biology.com/assay-protocol-panqinase]. Inhibitory activity of 50% or greater at concentrations of 1 μM are highlighted for all five compounds tested.
as §2, §3

BTK = BTK (Homo sapiens, UniProt Q06187); test: BTK Kinase Enzyme System with ADP-Glo Kinase Assay; set-up: Recombinant full-length human BTK was expressed by baculovirus in Sf9 insect cells; His (N); purchased Promega V9071; host or cells: Sf9 insect cells (baculovirus); settings: 50 μM ATP
Sequence of BTK (Q06187 whole entry): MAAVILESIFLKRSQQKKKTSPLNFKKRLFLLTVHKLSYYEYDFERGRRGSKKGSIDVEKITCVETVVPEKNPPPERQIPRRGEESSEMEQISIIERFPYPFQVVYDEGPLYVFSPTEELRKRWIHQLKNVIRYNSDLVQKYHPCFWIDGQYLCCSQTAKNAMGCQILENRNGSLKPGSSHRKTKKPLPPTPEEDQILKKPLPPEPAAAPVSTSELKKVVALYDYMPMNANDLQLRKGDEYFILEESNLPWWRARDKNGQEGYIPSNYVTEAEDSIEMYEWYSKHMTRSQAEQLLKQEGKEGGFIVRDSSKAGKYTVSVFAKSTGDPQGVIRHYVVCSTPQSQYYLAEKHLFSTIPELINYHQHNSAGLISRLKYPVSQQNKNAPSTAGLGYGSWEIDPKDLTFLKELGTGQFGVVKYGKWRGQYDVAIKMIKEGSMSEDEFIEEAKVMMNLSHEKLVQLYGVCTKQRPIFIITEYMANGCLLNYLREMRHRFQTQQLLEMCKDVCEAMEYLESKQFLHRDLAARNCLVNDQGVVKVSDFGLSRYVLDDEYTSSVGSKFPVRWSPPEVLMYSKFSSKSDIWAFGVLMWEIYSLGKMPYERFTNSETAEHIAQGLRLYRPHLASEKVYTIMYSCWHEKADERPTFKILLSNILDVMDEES
Procedure: Inhibition of BTK activity was evaluated using the BTK Kinase Enzyme System in combination with the ADP-Glo™ Kinase Assay Kit (V9071, Promega), according to manufacturer's instructions. Luminescence was detected on a PerkinElmer EnVision Multimode Plate Reader.
Recombinant full-length human BTK was expressed by baculovirus in Sf9 insect cells using an N-terminal His tag, MW ˜78 kDa. Substrate solution contained Poly (4:1 Glu, Tyr) Peptide Substrate. BTK Kinase Buffer consisted of: 40 mM Tris, pH 7.5; 20 mM MgCl2; 0.1 mg/ml BSA; 2 mM MnCl2; 50 μM DTT. ADP-Glo™ Reagents were thawed at ambient temperature; components of BTK Enzyme System, ADP and ATP were thawed on ice. Final assay conditions used 3 ng BTK, 50 μM ATP, and 0.2 mg/mL substrate. Compounds were tested at 11 dose points in duplicates, in 3-fold dilution with top concentration at 10 μM.
Assay performance was evaluated according to the reference compound Staurosporine, which was within 3-5 fold of published results and between different tests, with a Z′ value larger than 0.5, where applicable.

T1 sequence (P09769 whole entry): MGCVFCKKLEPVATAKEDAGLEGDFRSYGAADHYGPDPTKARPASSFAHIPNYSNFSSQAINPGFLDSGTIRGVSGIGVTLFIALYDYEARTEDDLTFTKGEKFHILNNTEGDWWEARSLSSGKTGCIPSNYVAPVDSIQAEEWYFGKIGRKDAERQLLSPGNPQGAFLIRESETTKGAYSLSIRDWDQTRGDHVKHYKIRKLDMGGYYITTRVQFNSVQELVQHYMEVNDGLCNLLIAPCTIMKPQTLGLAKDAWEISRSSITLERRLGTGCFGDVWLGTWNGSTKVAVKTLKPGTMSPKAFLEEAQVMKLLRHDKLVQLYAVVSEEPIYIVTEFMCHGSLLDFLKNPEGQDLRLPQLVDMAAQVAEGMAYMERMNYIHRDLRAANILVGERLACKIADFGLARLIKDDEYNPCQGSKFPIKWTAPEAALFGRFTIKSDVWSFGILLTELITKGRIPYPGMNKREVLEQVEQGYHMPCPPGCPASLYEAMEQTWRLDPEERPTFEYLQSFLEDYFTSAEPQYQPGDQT

| IC50 (BTK) | SMILES | inhibition at 1 µM (FGR) | inhibition at 1 µM (EPHB2) | inhibition at 1 µM (PKN3) | inhibition at 1 µM (KIT) | inhibition at 1 µM (FGFR2) |
| --- | --- | --- | --- | --- | --- | --- |
| – | O=C(c1ccc(Oc2ccccc2)cc1Cl)c1c[nH]c2ncnc(N[C@@H]3CC[C@@H](CO)OC3)c12 [ARQ-531, (2-chloro-4-phenoxyphenyl) (4-(((3R,6S)-6-(hydroxymethyl)tetrahydro-2H-pyran-3-yl)amino)-7H-pyrrolo[2,3-d]pyrimidin-5-yl) methanone] | 70 to 89% | 70 to 89% | 50 to 69% | 90 to 100% | 90 to 100% |
| 1 to 100 nM | Cc1cc(-c2ccnc(Nc3cnn(CCN4[C@@H](c5ncccc5C)CCC[C@H]4c4ncccc4C)c3)n2)ccc1CNC(=O)N1CC(OC(C)C)C1 [Compound I-11] | – | – | – | – | – |
| 1 to 100 nM | Cc1cccnc1[C@H]1CCC[C@@H](c2ncccc2C)N1CCCCNC(=O)[C@@H]1CC[C@@H](Nc2ncnc3[nH]cc(C(=O)c4ccc(Oc5ccccc5)cc4Cl)c23)CO1 [Compound I-16] | – | – | – | – | – |
| 1 to 100 nM | Cc1cccnc1[C@H]1CCC[C@@H](c2ncccc2C)N1CCCCNC(=O)OC[C@@H]1CC[C@@H](Nc2ncnc3[nH]cc(C(=O)c4ccc(Oc5ccccc5)cc4Cl)c23)CO1 [Compound I-18] | – | – | – | – | – |
| – | COc1ccc(F)cc1C(=O)NCc1ccc(-c2nn([C@@H](C)C(F)(F)F)c(N)c2C(N)=O)cc1 [LOXO-305, pirtobrutinib] | < 50% | < 50% | < 50% | < 50% | < 50% |
| – | C=CC(=O)N1CCC([C@@H]2CCNc3c(C(N)=O)c(-c4ccc(Oc5ccccc5)cc4)nn32)CC1 [Zanubrutinib, (7S)-2-(4-phenoxyphenyl)-7-(1-prop-2-enoylpiperidin-4-yl)-4,5,6,7-tetrahydropyrazolo[1,5-a]pyrimidine-3-carboxamide] | < 50% | < 50% | < 50% | < 50% | < 50% |

| SMILES | IC50 (BTK) | inhibition at 1 µM (FGR) | inhibition at 1 µM (EPHB2) | inhibition at 1 µM (PKN3) | inhibition at 1 µM (KIT) | inhibition at 1 µM (FGFR2) |
| --- | --- | --- | --- | --- | --- | --- |
| Cc1cccnc1[C@H]1CCC[C@@H](c2ncccc2C)N1CCN1CCN(C(=O)c2ccc(-c3cc4c(-c5cccc(NC(=O)c6ccccc6)c5C)ncnc4[nH]3)cc2)CC1 [Compound I-10, N-(3-(6-(4-(4-(2-((2R,6S)-2,6-bis(3-methylpyridin-2-yl)piperidin-1-yl)ethyl)piperazine-1-carbonyl)phenyl)-7H-pyrrolo[2,3-d]pyrimidin-4-yl)-2-methylphenyl)benzamide] | 1 to 100 nM | < 50% | < 50% | 50 to 69% | < 50% | < 50% |
